Experimental data from PMC10800876, “Evaluation of proline-rich antimicrobial peptides as potential lead structures for novel antimycotics against Cryptococcus neoformans” (Frontiers in Microbiology, 2024).
≈ marks a conversion by molar mass, not a printed value. Read-outs that look alike come from different tables or passages of the source. Residues, ends and D or L forms follow the SMILES beside them. *: point of attachment. Orn(α-tetramethylguanidino) = CN(C)C(=N[C@@H](CCCN)C(=O)*)N(C)C

Experiments:
[1] = test system: C. neoformans 1841 (serotype D)
[2] = test system: C. neoformans H99; assay: Antifungal activity assay (CFU on SAB agar); assay type: cell-based, Cryptococcus neoformans; conditions: treatment 3 h, 30 °C, mean ± SD, n = 4; for cell count C. neoformans H99, 24 h: CFU counted after 24 h; for cell count C. neoformans H99, 48 h: CFU counted after 48 h
[3] = test system: C. neoformans 1841; assay: Antifungal activity assay (CFU on SAB agar); assay type: cell-based, Cryptococcus neoformans; conditions: treatment 3 h, 30 °C, mean ± SD, n = 4; for cell count C. neoformans 1841, 24 h: CFU counted after 24 h; for cell count C. neoformans 1841, 48 h: CFU counted after 48 h
[4] = test system: C. neoformans strains 1841, H99, and KN99α; assay: Antifungal activity assay (CFU); assay type: cell-based, Cryptococcus neoformans; conditions: 2.5 μmol/L, 3 h incubation
[5] = test system: C. neoformans 1841; assay: Scanning electron microscopy, damaged cells; assay type: cell-based, Cryptococcus neoformans; conditions: 200 μmol/L, 10^8 CFU/mL, 3 h, 30°C
Procedure: Overnight cultures of C. neoformans 1841 were prepared as described and adjusted with 50% SAB in phosphate buffer to reach 1 × 10^8 CFU/mL. Aqueous peptide solutions (20 μL) were added to the cell suspension (80 μL) to give a final peptide concentration of 200 μmol/L. Samples were incubated at 30°C on an orbital shaker (750 rpm) for 3 h. Samples were centrifuged (2,000 × g, 10 min, 4°C, Microfuge 22R, Beckmann Coulter), cell pellets were washed with ice-cold phosphate-buffered saline (PBS, 100 μL) and centrifuged again. Cell pellets were re-suspended in PBS (25 μL) and adhered overnight in humid atmosphere to glass coverslips (Borosilicate Glass, VWR International GmbH) previously coated with 0.001% poly-L-lysine (in case of Critical-Point Drying). Cells were fixed (2% glutaraldehyde, 2% paraformaldehyde, in PBS) for 60 min and afterwards stained with 1% OsO4 in PBS for 60 min. The cells were gradually dehydrated in ethanol series (30, 50, 70, 85, 90, 96% (once), and 100% (thrice) for 10 min. The coverslips were critical-point-dried (Baltec CPD 030, BAL-TEC GmbH, Schalksmühle, Germany) or air-dried after incubation with HMDS (3 min, RT) and sputter coated with 20 nm gold/palladium (Baltec MED 020, BAL-TEC GmbH). Cells were visualized using the SEM secondary electron detector (Zeiss EVO LS 15 LaB6, Carl Zeiss Microscopy Deutschland GmbH).
GraphPad Prism 10.0.3 software was used for statistical analysis of the recorded data. A Dunnett’s multiple comparisons test (Ordinary-one-way ANOVA) was performed.

[6] = test system: C. neoformans strains 1841, H99, and KN99α; assay: Broth microdilution assay (MIC); assay type: cell-based, Cryptococcus neoformans
[7] = test system: C. neoformans KN99α; assay: Antifungal activity assay (CFU on SAB agar); assay type: cell-based, Cryptococcus neoformans; conditions: treatment 3 h, 30 °C, mean ± SD, n = 4; for cell count C. neoformans KN99α, 24 h: CFU counted after 24 h; for cell count C. neoformans KN99α, 48 h: CFU counted after 48 h
[8] = test system: C. neoformans H99 (serotype A)
[9] = test system: C. neoformans 1841; assay: Time-kill assay; assay type: cell-based, Cryptococcus neoformans; conditions: 2.5 μmol/L, 30°C, up to 24 h
Procedure: The kinetic effects of the antifungal activity were determined by diluting overnight cultures to 5 × 10^4 CFU/mL with 50% SAB in phosphate buffer. Aqueous peptide solutions (20 μL) were added to the cell suspension (80 μL) to give a final peptide concentration of 2.5 μmol/L. Samples were incubated at 30°C on an orbital shaker (750 rpm, Titramax 1,000, Heidolph Instruments GmbH & Co. KG) for 24 h. Before incubation (0 min) and after 45 min, 90 min, 3 h, 6 h, and 24 h incubation, aliquots (10 μL) of samples were taken and diluted with phosphate buffer (10 mmol/L, pH 7.5) to observe countable cell colonies. Aliquots (100 μL) of the diluted cell suspensions were plated on SAB agar plates. Plates were incubated at 30°C and colonies were counted after 24 h.

[10] = test system: C. neoformans KN99α (serotype A, mating type MATα)
[11] = test system: HepG2 and HEK293 cell lines; assay: Cytotoxicity (MTT), for both cell lines; assay type: cell-based, human; conditions: 125 mg/L, 24 h
Procedure: Human embryonic kidney (HEK293) and human hepatoma (HepG2) cells were cultured in Dulbecco’s modified Eagle’s/Ham’s F-12 medium (DMEM/F-12) containing 10% (v/v) fetal bovine serum and 1% (v/v) penicillin/streptomycin. Cells (20,000 in 200 μL per well) were seeded into a 96-well plate (polystyrene F-bottom, Greiner Bio-One GmbH) and incubated for 24 h (37°C, 5% CO2). Cells were washed with PBS (100 μL) and peptide solutions (0.6 g/L in DMEM/F-12) were added. The positive control was a dilution series from 12 to 1.5% (v/v) DMSO and the negative control was 12% (v/v) PBS. After incubation (37°C, 24 h, 5% CO2), the supernatant was discarded, fresh medium (90 μL/well) and MTT (10 μL/well, 5 g/L in PBS) were added, and the plate was incubated for 4 h (37°C, 5% CO2). A solution (100 μL) of sodium dodecyl sulfate (10% (v/v)) in hydrochloric acid (10 mmol/L) was added and the plate was incubated again for 24 h (37°C, 5% CO2). Absorbance was recorded at 570 nm relative to the reference at 650 nm ([…] ™ microplate reader). All samples were corrected for the background absorbance of the medium. Relative cell viability was calculated as the ratio of absorbances recorded for treated and untreated cells ([Kolano et al., 2021]; [Brakel et al., 2022a],[b]).

[12] = test system: C. neoformans H99 (serotype A); assay: microbe, parasite or virus in culture; conditions: Cryptococcus neoformans
[13] = test system: C. neoformans 1841 (serotype D); assay: microbe, parasite or virus in culture; conditions: Cryptococcus neoformans
[14] = test system: C. neoformans KN99α (serotype A, mating type MATα); assay: microbe, parasite or virus in culture; conditions: Cryptococcus neoformans
[15] = broth microdilution, 50% SAB in phosphate buffer, 30°C, read after 24 h, n = 6
[16] = broth microdilution, 50% SAB in phosphate buffer, 30°C, read after 48 h, n = 6

SMILES | cell count C. neoformans H99, 24 h ([2]; 0.25 µmol/L) | cell count C. neoformans H99, 48 h ([2]; 0.25 µmol/L) | cell count C. neoformans H99, 24 h ([2]; 2.5 µmol/L) | cell count C. neoformans H99, 48 h ([2]; 2.5 µmol/L) | cell count C. neoformans H99, 24 h ([2]; 25 µmol/L) | cell count C. neoformans H99, 48 h ([2]; 25 µmol/L) | cell count C. neoformans 1841, 24 h ([3]; 0.25 µmol/L) | cell count C. neoformans 1841, 48 h ([3]; 0.25 µmol/L) | cell count C. neoformans 1841, 24 h ([3]; 2.5 µmol/L) | cell count C. neoformans 1841, 48 h ([3]; 2.5 µmol/L) | cell count C. neoformans 1841, 24 h ([3]; 25 µmol/L) | cell count C. neoformans 1841, 48 h ([3]; 25 µmol/L) | cell count C. neoformans KN99α, 24 h ([7]; 0.25 µmol/L) | cell count C. neoformans KN99α, 48 h ([7]; 0.25 µmol/L) | cell count C. neoformans KN99α, 24 h ([7]; 2.5 µmol/L) | cell count C. neoformans KN99α, 48 h ([7]; 2.5 µmol/L) | cell count C. neoformans KN99α, 24 h ([7]; 25 µmol/L) | cell count C. neoformans KN99α, 48 h ([7]; 25 µmol/L) | also measured
CC[C@H](C)[C@H](NC(=O)[C@H](Cc1ccc(O)cc1)NC(=O)[C@@H](NC(=O)[C@@H]1CCCN1C(=O)[C@H](CCCNC(=N)N)NC(=O)[C@H](CC(N)=O)NC(=O)[C@H](CC(N)=O)NC(=O)[C@H](CCCN)N=C(N(C)C)N(C)C)C(C)C)C(=O)N1CCC[C@H]1C(=O)N[C@@H](CCCNC(=N)N)C(=O)N1CCC[C@H]1C(=O)N[C@@H](CCCNC(=N)N)C(=O)N1CCC[C@H]1C(=O)N1CCC[C@H]1C(=O)N[C@@H](Cc1c[nH]cn1)C(=O)N1CCC[C@H]1C(=O)N[C@@H](CCCNC(=N)N)C(=O)N[C@@H](CC(C)C)C(N)=O [Api88] ({Orn(α-tetramethylguanidino)}-NNRPVYIPRPRPPHPRL-NH2; N-terminus and C-terminus assumed) | 2.7 ± 0.4 x 10^4 CFU/mL | 2.8 ± 0.5 x 10^4 CFU/mL | 3.0 ± 0.2 x 10^4 CFU/mL | 3.3 ± 0.3 x 10^4 CFU/mL | 1.7 ± 0.2 x 10^4 CFU/mL | 2.0 ± 0.4 x 10^4 CFU/mL | 2.4 ± 0.1 x 10^4 CFU/mL | 2.4 ± 0.1 x 10^4 CFU/mL | 1.0 ± 0.1 x 10^4 CFU/mL | 1.0 ± 0.1 x 10^4 CFU/mL | 0.1 ± 0.0 x 10^4 CFU/mL | 0.1 ± 0.0 x 10^4 CFU/mL | 3.0 ± 0.7 x 10^4 CFU/mL | 3.1 ± 0.8 x 10^4 CFU/mL | 3.0 ± 0.6 x 10^4 CFU/mL | 3.1 ± 0.7 x 10^4 CFU/mL | 1.5 ± 0.2 x 10^4 CFU/mL | 1.6 ± 0.3 x 10^4 CFU/mL | MIC (μmol/L) 1841 48 h ([1]; 1841 (serotype D, 48 h, pH 7.5)): 7.0 µmol/L (≈ 16 µg/mL); MIC (mg/L) 1841 24 h [1, 15]: 8 mg/L (≈ 3.49 µM); MIC (mg/L) 1841 48 h [1, 16]: 16 mg/L (≈ 6.98 µM); effect on CFU of C. neoformans strains H99 and KN99α [4]: did not significantly reduce the CFU; damaged cells in SEM [5]: only a small portion showed deep indentations; MIC at 48 h ([6]; 48 h, forward sequence compared with its scrambled sequence): 7.0 µM (≈ 16 µg/mL); MIC ([6]; strains 1841, H99, and KN99α, 24 h): ≥ 3.5 µM; MIC (μmol/L) H99 24 h ([8]; H99 (serotype A, 24 h)): 7.0 µmol/L (≈ 16 µg/mL); MIC (mg/L) H99 48 h [8, 16]: 8 mg/L (≈ 3.49 µM); time-dependent antifungal effect [9]: delayed antifungal effect; MIC (μmol/L) KN99α 48 h ([10]; KN99α (serotype A, mating type MATα, 48 h)): 7.0 µmol/L (≈ 16 µg/mL); MIC (mg/L) KN99α 24 h [10, 15]: 8 mg/L (≈ 3.49 µM)
C[C@@H]1[C@H](O)[C@@H](C)/C=C/C=C/C=C/C=C/C=C/C=C/C=C/[C@H](O[C@@H]2O[C@H](C)[C@@H](O)[C@H](N)[C@@H]2O)C[C@@H]2O[C@](O)(C[C@@H](O)C[C@@H](O)[C@H](O)CC[C@@H](O)C[C@@H](O)CC(=O)O[C@H]1C)C[C@H](O)[C@H]2C(=O)O [Amphotericin B, reference compound] | 0.9 ± 0.7 x 10^4 CFU/mL | 1.1 ± 0.7 x 10^4 CFU/mL | 0.0 ± 0.0 x 10^4 CFU/mL | 0.0 ± 0.0 x 10^4 CFU/mL | 0.0 ± 0.0 x 10^4 CFU/mL | 0.0 ± 0.0 x 10^4 CFU/mL | 1.4 ± 0.3 x 10^4 CFU/mL | 1.4 ± 0.3 x 10^4 CFU/mL | 0.0 ± 0.0 x 10^4 CFU/mL | 0.0 ± 0.0 x 10^4 CFU/mL | 0.0 ± 0.0 x 10^4 CFU/mL | 0.0 ± 0.0 x 10^4 CFU/mL | 2.4 ± 1.5 x 10^4 CFU/mL | 2.5 ± 1.7 x 10^4 CFU/mL | 0.1 ± 0.1 x 10^4 CFU/mL | 0.1 ± 0.1 x 10^4 CFU/mL | 0.0 ± 0.0 x 10^4 CFU/mL | 0.0 ± 0.0 x 10^4 CFU/mL | cytotoxicity [11]: strong cytotoxicity; MIC ([12]; 24 h, read-out: MIC (mg/L) H99 24 h): < 0.02 mg/L; MIC ([12]; 24 h, read-out: MIC (μmol/L) H99 24 h): < 0.02 µmol/L; MIC ([12]; 48 h, read-out: MIC (mg/L) H99 48 h): 0.04 to 0.08 mg/L; MIC ([12]; 48 h, read-out: MIC (μmol/L) H99 48 h): 0.04 to 0.09 µmol/L; MIC [6]: < 0.2 µg/mL; MIC ([6]; Cryptococcus neoformans, read-out: MIC): < 0.22 µM; MIC ([13]; 24 h, pH 7.5, read-out: MIC (μmol/L) 1841 24 h): 0.06 to 0.23 µmol/L; MIC ([13]; 24 h, read-out: MIC (mg/L) 1841 24 h): 0.06 to 0.12 mg/L; MIC ([13]; 48 h, pH 7.5, read-out: MIC (μmol/L) 1841 48 h): 0.13 µmol/L; MIC ([13]; 48 h, read-out: MIC (mg/L) 1841 48 h): 0.12 mg/L; MIC ([14]; 24 h, read-out: MIC (mg/L) KN99α 24 h): 0.08 mg/L; MIC ([14]; 24 h, read-out: MIC (μmol/L) KN99α 24 h): 0.09 µmol/L; MIC ([14]; 48 h, read-out: MIC (mg/L) KN99α 48 h): 0.16 mg/L; MIC ([14]; 48 h, read-out: MIC (μmol/L) KN99α 48 h): 0.17 µmol/L
